Tests used:
[1] = tested on: corn (Zea mays); assay: Test F pre-/postemergence: corn; format: in vivo
In short: (§1)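 0–100 visual control scores, taken 14–21 d after application in the greenhouse. Preemergence treatment was made to silt loam soil at sowing. Postemergence sprays hit 1- to 4-leaf plants (2–18 cm) in peat/vermiculite mix. Surfactant-containing non-phytotoxic solvent served as the vehicle.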

[2] = tested on: crabgrass, large (large crabgrass, Digitaria sanguinalis); assay: Test F pre-/postemergence: crabgrass, large; format: in vivo; details: Preemergence
In short: as §1

[3] = tested on: foxtail, giant (giant foxtail, Setaria faberii); assay: Test F pre-/postemergence: foxtail, giant; format: in vivo; details: Preemergence
In short: as §1

[4] = tested on: goosegrass (Eleusine indica); assay: Test F pre-/postemergence: goosegrass; format: in vivo; details: Preemergence
In short: as §1

[5] = tested on: barnyardgrass (Echinochloa crus-galli); assay: Test F pre-/postemergence: barnyardgrass; format: in vivo
In short: as §1

[6] = tested on: kochia (Kochia scoparia); assay: Test F pre-/postemergence: kochia; format: in vivo; details: Preemergence
In short: as §1

[7] = tested on: Oilseed Rape; assay: Test C preemergence: oilseed rape; format: in vivo; details: 31 g ai/ha, scale 0 (no effect) to 100 (complete control)
[8] = tested on: ragweed (common ragweed, Ambrosia elatior); assay: Test F pre-/postemergence: ragweed; format: in vivo; details: Preemergence
In short: as §1

[9] = tested on: Waterhemp; assay: Test C preemergence: waterhemp; format: in vivo, Amaranthus rudis; details: 125 g ai/ha, scale 0 to 100, 0 no effect, 100 complete control
[10] = Postemergence, 250 g ai/ha, scale 0 to 100
[11] = Postemergence, 31 g ai/ha, scale 0 to 100
[12] = Postemergence, 125 g ai/ha, scale 0 to 100
[13] = Preemergence, 31 g ai/ha, scale 0 to 100, 0 no effect, 100 complete control
[14] = Preemergence, 125 g ai/ha, scale 0 to 100
[15] = Preemergence, 250 g ai/ha, scale 0 to 100
[16] = 31 g ai/ha, scale 0 to 100, 0 no effect, 100 complete control
[17] = Preemergence, 16 g ai/ha, scale 0 to 100, 0 no effect, 100 complete control
[18] = Preemergence, 62 g ai/ha, scale 0 to 100
[19] = 16 g ai/ha, scale 0 to 100, 0 no effect, 100 complete control
[20] = Postemergence, 16 g ai/ha, scale 0 to 100
[21] = Postemergence, 62 g ai/ha, scale 0 to 100

SMILES: CCCc1nn(-c2ccc(F)c(F)c2)nc1Oc1ccnc(C(F)(F)F)c1 [Compound 172]
- Plant response rating, Corn [1, 10]: 30
- Plant response rating, Corn [1, 11]: 15
- Plant response rating, Corn [1, 12]: 20
- Plant response rating, Corn [1, 13]: 0
- Plant response rating, Corn [1, 14]: 15
- Plant response rating, Corn [1, 15]: 15
- Plant response rating, Crabgrass, Large [2, 16]: 100
- Plant response rating, Crabgrass, Large ([2]; 125 g ai/ha, scale 0 to 100): 100
- Plant response rating, Crabgrass, Large ([2]; 250 g ai/ha, scale 0 to 100): 100
- Plant response rating, Foxtail, Giant [3, 16]: 100
- Plant response rating, Foxtail, Giant ([3]; 125 g ai/ha, scale 0 to 100): 100
- Plant response rating, Foxtail, Giant ([3]; 250 g ai/ha, scale 0 to 100): 100
- Plant response rating, Goosegrass [4, 16]: 98
- Plant response rating, Goosegrass ([4]; 125 g ai/ha, scale 0 to 100): 100
- Plant response rating, Goosegrass ([4]; 250 g ai/ha, scale 0 to 100): 100
- Plant response rating, Barnyardgrass [5, 10]: 85
- Plant response rating, Barnyardgrass [5, 11]: 20
- Plant response rating, Barnyardgrass [5, 12]: 50
- Plant response rating, Barnyardgrass [5, 13]: 70
- Plant response rating, Barnyardgrass [5, 14]: 100
- Plant response rating, Barnyardgrass [5, 15]: 100
- Plant response rating, Kochia [6, 16]: 20
- Plant response rating, Kochia ([6]; 125 g ai/ha, scale 0 to 100): 100
- Plant response rating, Kochia ([6]; 250 g ai/ha, scale 0 to 100): 100
- Plant response rating, Oilseed Rape [7]: 60

SMILES: CCc1nn(-c2ccc(F)cc2)nc1Cc1ccnc(C(F)(F)F)c1 [Compound 154]
- Plant response rating, Corn [1, 17]: 0
- Plant response rating, Corn [1, 13]: 0
- Plant response rating, Corn [1, 18]: 0
- Plant response rating, Corn [1, 14]: 5
- Plant response rating, Corn [1, 15]: 5
- Plant response rating, Crabgrass, Large [2, 19]: 50
- Plant response rating, Crabgrass, Large [2, 16]: 98
- Plant response rating, Crabgrass, Large ([2]; 62 g ai/ha, scale 0 to 100): 100
- Plant response rating, Crabgrass, Large ([2]; 125 g ai/ha, scale 0 to 100): 100
- Plant response rating, Crabgrass, Large ([2]; 250 g ai/ha, scale 0 to 100): 100
- Plant response rating, Foxtail, Giant [3, 19]: 5
- Plant response rating, Foxtail, Giant [3, 16]: 65
- Plant response rating, Foxtail, Giant ([3]; 62 g ai/ha, scale 0 to 100): 100
- Plant response rating, Foxtail, Giant ([3]; 125 g ai/ha, scale 0 to 100): 100
- Plant response rating, Foxtail, Giant ([3]; 250 g ai/ha, scale 0 to 100): 100
- Plant response rating, Goosegrass [4, 19]: 10
- Plant response rating, Goosegrass [4, 16]: 95
- Plant response rating, Goosegrass ([4]; 62 g ai/ha, scale 0 to 100): 95
- Plant response rating, Goosegrass ([4]; 125 g ai/ha, scale 0 to 100): 100
- Plant response rating, Goosegrass ([4]; 250 g ai/ha, scale 0 to 100): 100
- Plant response rating, Ragweed [8, 19]: 0
- Plant response rating, Ragweed [8, 16]: 0
- Plant response rating, Ragweed ([8]; 125 g ai/ha, scale 0 to 100): 0
- Plant response rating, Ragweed ([8]; 250 g ai/ha, scale 0 to 100): 40
- Plant response rating, Barnyardgrass [5, 17]: 0
- Plant response rating, Barnyardgrass [5, 13]: 5
- Plant response rating, Barnyardgrass [5, 18]: 85
- Plant response rating, Barnyardgrass [5, 14]: 90
- Plant response rating, Barnyardgrass [5, 15]: 100
- Plant response rating, Kochia [6, 19]: 5
- Plant response rating, Kochia [6, 16]: 25
- Plant response rating, Kochia ([6]; 62 g ai/ha, scale 0 to 100): 85
- Plant response rating, Kochia ([6]; 125 g ai/ha, scale 0 to 100): 95
- Plant response rating, Kochia ([6]; 250 g ai/ha, scale 0 to 100): 98
- Plant response rating, Waterhemp [9]: 100

SMILES: CCc1nn(-c2ccc(C(F)(F)F)cc2)nc1Oc1ccnc(C(F)(F)F)c1 [Compound 169]
- Plant response rating, Corn [1, 10]: 10
- Plant response rating, Corn [1, 20]: 5
- Plant response rating, Corn [1, 11]: 5
- Plant response rating, Corn [1, 21]: 10
- Plant response rating, Corn [1, 12]: 10
- Plant response rating, Corn [1, 17]: 0
- Plant response rating, Corn [1, 13]: 0
- Plant response rating, Corn [1, 18]: 0
- Plant response rating, Corn [1, 14]: 0
- Plant response rating, Corn [1, 15]: 0
- Plant response rating, Crabgrass, Large [2, 19]: 98
- Plant response rating, Crabgrass, Large [2, 16]: 98
- Plant response rating, Crabgrass, Large ([2]; 62 g ai/ha, scale 0 to 100): 100
- Plant response rating, Crabgrass, Large ([2]; 125 g ai/ha, scale 0 to 100): 100
- Plant response rating, Crabgrass, Large ([2]; 250 g ai/ha, scale 0 to 100): 100
- Plant response rating, Foxtail, Giant [3, 19]: 70
- Plant response rating, Foxtail, Giant [3, 16]: 100
- Plant response rating, Foxtail, Giant ([3]; 62 g ai/ha, scale 0 to 100): 100
- Plant response rating, Foxtail, Giant ([3]; 125 g ai/ha, scale 0 to 100): 100
- Plant response rating, Foxtail, Giant ([3]; 250 g ai/ha, scale 0 to 100): 100
- Plant response rating, Goosegrass [4, 19]: 50
- Plant response rating, Goosegrass [4, 16]: 95
- Plant response rating, Goosegrass ([4]; 62 g ai/ha, scale 0 to 100): 100
- Plant response rating, Goosegrass ([4]; 125 g ai/ha, scale 0 to 100): 100
- Plant response rating, Goosegrass ([4]; 250 g ai/ha, scale 0 to 100): 100
- Plant response rating, Ragweed [8, 19]: 0
- Plant response rating, Ragweed [8, 16]: 0
- Plant response rating, Ragweed ([8]; 125 g ai/ha, scale 0 to 100): 60
- Plant response rating, Ragweed ([8]; 250 g ai/ha, scale 0 to 100): 100
- Plant response rating, Barnyardgrass [5, 10]: 40
- Plant response rating, Barnyardgrass [5, 20]: 0
- Plant response rating, Barnyardgrass [5, 11]: 0
- Plant response rating, Barnyardgrass [5, 21]: 15
- Plant response rating, Barnyardgrass [5, 12]: 25
- Plant response rating, Barnyardgrass [5, 17]: 0
- Plant response rating, Barnyardgrass [5, 13]: 0
- Plant response rating, Barnyardgrass [5, 18]: 20
- Plant response rating, Barnyardgrass [5, 14]: 60
- Plant response rating, Barnyardgrass [5, 15]: 95
- Plant response rating, Kochia [6, 19]: 0
- Plant response rating, Kochia [6, 16]: 95
- Plant response rating, Kochia ([6]; 62 g ai/ha, scale 0 to 100): 95
- Plant response rating, Kochia ([6]; 125 g ai/ha, scale 0 to 100): 98
- Plant response rating, Kochia ([6]; 250 g ai/ha, scale 0 to 100): 98
- Plant response rating, Oilseed Rape [7]: 50
